Measured values published in patent US20130052172A1, “METHODS FOR DIAGNOSING AND TREATING CARDIAC DEFECTS” (priority 2011, published 2013).
Several values for one entry are separate records, joined by “and”; a condition that tells them apart may be missing. Equal entries are not always repeated. Entries after “also recorded” stand apart in the source; their conditions may differ.

Legend:
Dahl S rats = experiment: In vivo regional myocardial ischemia/reperfusion, infarct size (IS/AAR); design: species or system rat
Source text: An anesthetized rat model was used for in vivo ischemia/reperfusion studies using the general surgical protocol and determination of infarct size (IS) described in “K(ATP) opener-induced delayed cardioprotection: involvement of sarcolemmal and mitochondrial K(ATP) channels, free radicals and MEK½” (Gross, E. et al., J. Mol. Cell. Cardiol. 35, 985-992, 2003), the entirety of which is incorporated herein by reference. Briefly, following anesthesia, a tracheotomy for artificial ventilation was performed, with the left common carotid artery cannulated for blood pressure and heart rate measurements. A thoracotomy was performed at the fifth intercostal space, the pericardium was excised, and a silk ligature was placed distal to the left atrial appendage that spanned to the sternal portion of the left ventricle, which included the left anterior descending coronary artery. Occlusion of the area described [area at risk (AAR)] was created by placing ends of the ligature through a polypropylene tube and fixing the snare to the epicardial surface with a hemostat. After 30 min, the hemostat was released to reperfuse the AAR. Following 2 h of reperfusion, the ligature was again occluded, and the AAR was determined by patent-blue negative staining. The heart was then excised, cross-sectioned into 4 to 5 slices, and separated into normal zone and AAR. Pieces were incubated in 1% 2,3,5-triphenyltetrazolium chloride to determine IS. The heart was then incubated overnight in 10% formaldehyde, and infarcted tissue was dissected from the AAR. IS was expressed as a percentage of the AAR (IS/AAR). Leptin (0.12 μg/kg) was administered intravenously as a bolus at 24 and 12 h before ischemia. Amino acids were administered intravenously as a bolus at 24 and 12 hours before ischemia or dissolved in the drinking water and given 48 hours before ischemia.

intestinal microbiota = experiment: Fecal microbiota abundance by 16S/18S rRNA quantitative PCR; format: in vivo, rat
Description: In the following example, methods for quantifying microbiota abundance in rat feces are described. Fresh fecal pellets were obtained from each rat prior to (day 0) and at day 6 to 7 post treatment. Pellets were homogenized in 1 ml PBS. 200 μl of homogenate was used for microbial DNA isolation using a QIAamp DNA Stool Mini Kit (Qiagen, Valencia, Calif.). Isolated DNA samples were subjected to quantitative PCR using an iCycler (Bio-Rad, Hercules, Calif.) for microbial population enumeration. PCR reaction mixture consisted of 50% iQ SYBR Green Supermix (Bio-Rad), 0.4 μM forward and reverse primers, and 3.8% template solution in RNase/DNase free water. Primer sets specific for 16s and 18s rRNA genes of particular microbial phylum, class, genus, and species (M. smithii and L. plantarum) along with 20 reaction temperature and reference strains are detailed in FIG. 2 and Table 1.

leptin = experiment: Plasma cytokine analysis (leptin); format: in vivo, rat; details: vancomycin in drinking water, d 6 vs d 0
Description: The concentration of cytokines in blood of rats treated with vancomycin was quantified to identify antibiotic-induced changes. […] Blood samples were kept on ice for 30 min and then centrifuged at 1000 g for 10 min at 4° C. to obtain plasma. Plasma samples were then analyzed to determine the concentration of 23 cytokines (Eve Technologies, Calgary, AB, Canada). Antibiotic was administered continuously via drinking water as described in example 1.

[1] = system: metabolites known to be modified by intestinal microbiota; experiment: Metabolomic mass spec analysis of blood metabolites; format: in vivo, rat; details: rats treated for 7 days
Source text: In this example, methods for assaying metabolite levels using mass spectrometry are described. Each sample received was accessioned into the Metabolon Laboratory Information Management System (LIMS) and was assigned by the LIMS a unique identifier, which was associated with the original source identifier only. This identifier was used to track all sample handling, tasks, results etc. The samples (and all derived aliquots) were bar-coded and tracked by the LIMS system. All portions of any sample were automatically assigned their own unique identifiers by the LIMS when a new task was created; the relationship of these samples was also tracked. All samples were maintained at −80° C. until processed.
The sample preparation process was carried out using the automated MicroLab STAR® system from Hamilton Company. Recovery standards were added prior to the first step in the extraction process for Quality Control (QC) purposes. […]
The LC/MS portion of the platform was based on a Waters ACQUITY UPLC and a Thermo-Finnigan LTQ mass spectrometer, which consisted of an electrospray ionization (ESI) source and linear ion-trap (LIT) mass analyzer. […] One aliquot was analyzed using acidic positive ion optimized conditions and the other using basic negative ion optimized conditions in two independent injections using separate dedicated columns. […]

CN[C@H](CC(C)C)C(=O)N[C@H]1C(=O)N[C@@H](CC(N)=O)C(=O)N[C@H]2C(=O)N[C@H]3C(=O)N[C@H](C(=O)N[C@H](C(=O)O)c4cc(O)cc(O)c4-c4cc3ccc4O)[C@H](O)c3ccc(c(Cl)c3)Oc3cc2cc(c3O[C@@H]2O[C@H](CO)[C@@H](O)[C@H](O)[C@H]2O[C@H]2C[C@](C)(N)[C@H](O)[C@H](C)O2)Oc2ccc(cc2Cl)[C@H]1O [vancomycin, Vancomycin]
reduction in myocardial IS (Dahl S rats; Dahl S rats, antibiotic in drinking water 7 d, in vivo regional ischemia/reperfusion): ~27% | effect on infarct size in vivo (Dahl S rats; antibiotic added to the drinking water): reduced infarct size (IS) in vivo | decrease in infarct size (Dahl S rats; vancomycin 15 mg/kg/day for 72 hours, thrombopoietin i.v. 15 minutes prior to ischemia): 28% | total bacterial/microbial numbers in feces (intestinal microbiota; oral antibiotic in drinking water, Dahl S rats): reduced total bacterial numbers; also recorded: reduced total microbial numbers; also recorded: reduce overall bacterial numbers | change of Bacilli abundance in feces (intestinal microbiota; oral antibiotic treatment): increased two fold | change of Lactobacillales abundance in feces (intestinal microbiota; oral antibiotic treatment): increase abundance | change of Proteobacteria abundance in feces (intestinal microbiota; oral antibiotic treatment): increase abundance | increase of Proteobacteria in feces (intestinal microbiota; oral antibiotic treatment): 120 fold | decrease in circulating leptin (leptin): 38±4% and 38% | metabolites of tryptophan, phenylalanine and tyrosine in blood [1]: decreased metabolites known to be modified by intestinal microbiota | phenyllactate in blood [1]: increased
